Test results published in article PMC11641365, “Evaluation of In Vitro Biological Activity of Flavanone/Chromanone Derivatives: Molecular Analysis of Anticancer Mechanisms in Colorectal Cancer” (International Journal of Molecular Sciences, 2024).

Experiments:
SW620 [1] = assay: MTT cell viability assay; format: cell-based; details: Homo sapiens, SW-620, 24 h incubation with compound, mean ± SD of three experiments, read-out: Cytotoxic effect, IC50
Experimental: (§1) The cytotoxic activity of the 3-benzylideneflavanones, 3-benzylidenechromanones derivatives (compounds 1, 2, 3, 4, 5) and 5′-(3-methoxyphenyl)-2-phenyl-4′,5′-dihydro-4H-spiro[chromano-3,3′-pirazol]-4-one (compound 3a) was evaluated using the MTT assay (4,5-dimethylthiazol-2-yl)-2,5-diphenyltetrazoliumbromide), a colorimetric method that quantifies cell viability.
(§2) Cell viability was determined using the metabolic microplate spectrophotometric assay with Methylthiazolyl diphenyltetrazolium bromide (MTT) (Sigma-Aldrich; St. Louis, MO, USA). The MTT method belongs to metabolic tests for determining cell viability and consists of measuring the absorbance of a violet solution of formazan, a product of the reduction of a water-soluble yellow MTT by oxidoreductive enzymes (mainly mitochondrial succinate dehydrogenase) of living cells. The amount of the reaction product (water-insoluble formazan crystals) is proportional to the number of living and metabolically active cells in the sample. In the case of damaged or dead cells, formazan is formed in smaller amounts, or it is not formed.
(§3) The appropriate number of cells for a given cell line (6–8 × 10^3 cells/mL) were seeded onto colorless, sterile 96-well microplates (Nunc, Roskilde, Denmark) in the number appropriate for a given cell line. After 24 h of culture, various concentrations of the studied compounds (10^−7–10^−5 M) freshly prepared in DMSO (final concentration DMS < 0.1%) and diluted with complete culture medium were added and incubated in a CO2 incubator for 24 h. After this time, the medium was removed; the cell monolayer was washed twice with sterile PBS solution; and fresh culture medium was added to the microplate wells. After 48 h of cell culture, the MTT test was performed. A volume of 50 μL of tetrazolium salt solution (final concentration 0.05 mg/mL) was added to each microplate well. The microplate was placed for 3–4 h (depending on the cell line) in a CO2 incubator. After incubation, 100 μL of DMSO was added to the wells of the microplate to dissolve the purple formazan crystals formed in the living cell environment. The absorbance of the formazan solution, after gentle mixing, was read at a wavelength of λ = 580 nm and a reference wavelength of λ = 720 nm (Biotek Power Wave HT, Biotek Instruments, Winooski, VT, USA). The percentage of living cells was calculated by comparing the absorbance value of the tested samples with the absorbance value of the control (cells not treated with compounds). The absorbance of the control was taken as 100%.

LoVo [2] = assay: MTT cell viability assay; format: cell-based; details: Homo sapiens, 24 h incubation with compound, mean ± SD of three experiments, read-out: Cytotoxic effect, IC50
Experimental: as §1, §2, §3

SW620 [3] = assay: Cell cycle analysis via flow cytometry (propidium iodide); format: cell-based, human; details: compound at IC50, 24 h; for Increase in the G2/M phase cell fraction: vs control
Experimental: (§4) The most commonly used fluorescent dyes for cell cycle analysis are fluorochromes that penetrate the cell membrane into the interior of permeabilized cells and bind stoichiometrically to DNA via intercalation, e.g., DAPI, propidium iodide (PI). The analysis is performed on cells fixed in ethanol. In this work, the cell cycle analysis was performed using the method described by Darzynkiewicz and Juan.
(§5) Cells (10 × 10^3) were seeded in 35 mm dishes and cultured in the medium for 24 h to attain the logarithmic growth phase. […] Subsequently, cells were trypsinized and centrifuged for 10 min at 400× g at 4 °C. The cell suspension in 100 μL of PBS was fixed in 1 mL of 70% ethanol (−20 °C) and stored at this temperature until analysis. Immediately before analysis, the ethanol-fixed cell suspension was centrifuged at 10,000 rpm for 10 min at 4 °C. The pellet was washed with cold (4 °C) PBS to remove residual ethanol, and the cell suspension was centrifuged again under the same conditions. A volume of 300 μL of PBS containing 4 mg/mL propidium iodide (final concentration 75 μM) and 1 mg/mL RNAse A (final concentration 20 μg/mL) was added to the cell pellet and incubated for at least 30 min at 37 °C in the dark. Stained cells were analyzed using a flow cytometer (Becton Dickinson, Franklin Lakes, NJ, USA), counting 10,000 cells in each sample. Data were analyzed using FlowJo 10.10 software (FlowJo, Williamson Way Ashland, OR, USA).

HCT 116 = assay: as above; format: cell-based, human; details: compound at IC50, 24 h, vs control
Experimental: as §4, §5

LoVo [4] = assay: as above; format: cell-based, human; details: compound at IC50, 24 h, vs control
Experimental: as §4, §5

SW620 [5] = assay: Mitochondrial membrane potential (ΔΨm), JC-1 probe; format: cell-based, human; details: compound at IC50, vs control
Source text: Changes in mitochondrial potential in cancer cells exposed to the tested derivatives were monitored using the fluorescent probe JC-1. In non-apoptotic cells, JC-1 aggregates emit red-orange fluorescence. During changes in mitochondrial membrane potential, such as those associated with the initiation of PCD stages (both hyperpolarization and depolarization of mitochondrial membranes), JC-1 is converted to monomers, emitting green fluorescence.
5,5,6,6-Tetrachloro-1,1,3,3-tetraethylbenzimidazolylcarbocyanine iodide (JC-1) is one of the most reliable fluorescent probes used to assess changes in mitochondrial membrane potential (ΔΨ). In living cells with intact mitochondrial membranes, the lipophilic, cationic dye JC-1 penetrates the negatively charged mitochondrial matrix as a monomer, where it forms fluorescent aggregates with red-orange fluorescence (λex = 514 nm, λem = 590). […] The fluorescence ratio of aggregates (λem = 590 nm) and monomers (λem = 529 nm)—590 nm/529 nm—reflects the level of damage to the mitochondrial membrane.
Cells were seeded in black 96-well fluorometric microplates at a density of 10 × 10^3 cells/mL. […] Following treatment, the medium was removed, and the cell monolayers were washed twice with HBSS (140 mM NaCl, 5 mM KCl, 0.8 mM MgCl2, 1.8 mM CaCl2, 1 mM Na2HPO4, 10 mM HEPES, and 1% glucose). Then, 50 μL of a JC-1 solution in HBSS was added to each well, and the cells were incubated for 30 min in the dark at 37 °C (final JC-1 concentration 5 μM). After removing the fluorescent dye and replacing it with fresh HBSS, fluorescence measurements were taken using a Perkin-Elmer LS-5B spectrofluorometer (Perkin-Elmer LS-5B spectrofluorometer, Waltham, MA, USA). The excitation and emission wavelengths for JC-1 monomers were 514 nm and 529 nm, respectively, while for aggregates, they were 514 nm and 590 nm. The results were expressed as a percentage change in the fluorescence ratio of JC-1 aggregates to JC-1 monomers compared to the control, which was set at 100%.

| Compound | IC50 (SW620 [1]) | IC50 (LoVo [2]) | Increase in the G2/M phase cell fraction (SW620 [3]) | Increase in the G2/M phase cell fraction (HCT 116) | Increase in the G2/M phase cell percentage (LoVo [4]) | Increase in mitochondrial membrane potential (hyperpolarization) (SW620 [5]) | Change in cell cycle parameters or G2/M phase arrest (SW620 [3]) | Change in mitochondrial membrane potential ΔΨm (SW620 [5]) |
| --- | --- | --- | --- | --- | --- | --- | --- | --- |
| COc1cccc(/C=C2/C(=O)c3ccccc3OC2c2ccccc2)c1 (stereo not drawn) [Compound 3] | 12.4 ± 2.1 µM | 23.2 ± 1.4 µM | approximately 20% | approximately 30% | approximately 35% | ~60% |  |  |
| O=C1/C(=C/c2ccccc2)COc2ccccc21 [Compound 1] | 8.1 ± 1.7 µM | 12.6 ± 1.5 µM |  | approximately 10% | approximately 10% | approximately 40% | no statistically significant changes |  |
| O=C1/C(=C/c2ccccc2)C(c2ccccc2)Oc2ccccc21 (stereo not drawn) [Compound 5] | 16.7 ± 3.1 µM | 19.4 ± 2.1 µM | ~13% | 20% | approximately 20% |  |  | no statistically significant changes |
